Laboratory results taken from patent US9884874B2, “Bromodomain-inhibiting compounds and pharmaceutical composition comprising same for preventing or treating a cancer” (KAINOS MEDICINE, INC., priority 2014, dated 2018).

Legend:
[1] = tested on: MV4-11 (human leukemia cell line); assay: Anti-proliferative activity test (CellTiter-Glo), MV4-11; type: cell-based; conditions: second value of LnCAP/MV4-11 cell, read-out: Cell proliferation IC50 (MV4-11)
Experimental: (§1) IC50 (uM) of the compounds obtained in Examples 1 to 18 against hematological cancer cells and solid tumors was measured for identifying anti-proliferative activities.
(§2) A human prostatic adenocarcinoma cell line, LnCAP (ATCC®, CRL-1740) and human leukemia cell line MV4-11 (ATCC®, CRL-9591) were used to test the degrees of the compounds 1 to 18 in inhibiting the cancer cell growth. The testing cell concentration was adjusted to 6.7×10^3 cells/ml with a culture medium supplemented with 10% FBS, in the temperature of 37° C., 5% CO2 and 95% humidity. Culture media and FBS were purchased from GIBCO. 90 μL of cell suspensions thus obtained was added to two 96-well plates with the final cell density of 600 cells/well, followed by addition of 10 μL of culture medium to each well of plate. The plates were incubated overnight in a humidified incubator at 37° C. with 5% CO2.
(§3) Compounds 1 to 18 were each dissolved with dimethylsulfoxide (DMSO) or phosphate buffer solution (PBS) as a stock solution, and 200× solutions of test compound (2 mM) using DMSO were prepared. Then, the DMSO solution thus obtained was diluted 20-fold with culture medium or PBS to obtain 10× working solution. 10 μL of 10× working solution (drug solution) was dispensed to each well (triplicate for each concentration). The final concentration of DMSO in culture medium was 0.5% [v/v].
(§4) Cell viability was determined using CellTiter-Glo® (CTG) assay. 100 μL of CellTiter-Glo® was added to the equal volume of the cultured cells to read luminescence in EnVision Multi Label Reader.

[2] = Human liver microsomal stability/clearance; type: in vitro ADME; conditions: human liver microsomes; first value of Human/Mouse cell; read-out: Liver microsomal clearance (Human)
Experimental: (§5) Human and mouse liver microsomal clearance assays were carried out in CROWN Biosciences (Taicang, China). The human liver microsomes (Cat No. X008067, Lot No. KQB) and mouse liver microsomes (Cat No. M1000, Lot No. 1210302) were purchased from Celsis and Xenotech, respectively.
(§6) 5 μL of test compound stock solution was diluted with 495 μL of 1:1 Methanol/Water (final concentration: 100 μM, 50% MeOH) and combined with 534 μL of the respective liver microsome solution (final concentration: 1.111 μM, 0.555% MeOH). The final concentration of the liver microsome solution was 0.7 mg protein/mL.
(§7) Incubations of the liver microsome solutions were performed in a 96 well plate at 37° C. 90 μL of the liver microsome solutions were added to Blank, and 90 μL of working solution of the test compound was added to all plates except the Blank.
(§8) All plates thus obtained were warmed in water bath at 37° C. for 10 min, and 10 μL of NADPH co-factor solution comprising 42 mg of β-nicotinamide adenine dinucleotide phosphate (Sigma Cat. No. N0505 Lot 020M7009V), 84 mg of isocitric acid (Sigma Cat. No. 11252 Lot 119K1099) and 0.478 mL of isocitric dehydrogenase (Sigma Cat. No. 12002 Lot 086K7055, 15 units/mg protein, warmed in water bath at 37° C. for 5 min was added to the plates. The resulting plates were incubated at 37° C. in the following order: T60 (The test compounds were incubated with the liver microsomal solution and NADPH for 60 min at 37° C.), T30 (such as for 30 min.), and T10 (such as for 10 min.). 300 μL of a cold (4° C.) stop solution (acetonitrile (ACN) including 500 nM of tolbutamide as internal standard) and 10 μL of NADPH co-factor solution to starting plate (T0: 100% of the parent compound without any reaction) were added to the plates. The reaction was stopped by adding 300 μL of the cold (4° C.) stop solution to the other plates in the following order: T10 first, then T30 and T60.
(§9) The samples were centrifuged at 4,000 rpm for 20 min and transferred to Bioanalytical Services for liquid chromatography-mass spectrometry (LC-MS)/MS (Waters UPLC/API 4000, 10 μL injection) analysis.

[3] = tested on: LnCAP (human prostatic adenocarcinoma cell line); assay: Anti-proliferative activity test (CellTiter-Glo), LnCAP; type: cell-based; conditions: first value of LnCAP/MV4-11 cell, read-out: Cell proliferation IC50 (LnCAP)
Experimental: as §1, §2, §3, §4

[4] = tested on: OPM-2 (multiple myeloma); assay: Anti-proliferative activity, OPM-2; type: cell-based; conditions: Homo sapiens, read-out: Cell proliferation, IC50
[5] = tested on: SK-LU-1 (adenocarcinoma); assay: Anti-proliferative activity, SK-LU-1; type: cell-based; conditions: Homo sapiens, SKLU-1 (Adenocarcinoma), read-out: Cell proliferation, IC50
[6] = target: human BRD4 bromodomain 1 (Homo sapiens (Human), UniProt O60885); assay: Bromodomain binding assay (BRD4 Alpha-screen); conditions: acetylated histone H4 peptide
Experimental: Bromodomain binding assays were carried out in Reaction Biology (PA, USA) to test the degrees of the inventive compounds in inhibiting the human BRD4 bromodomain 1 by Alpha-screen assay method.
Recombinant human BRD4 bromodomain 1 expressed in E. coli with N-terminal His-tag was used as the enzyme target.
A synthetic peptide ([…]-GSGSK-biotin) containing 1 to 21th amino acids of histone H4 acetylated at lysine 5, 8, 12 and 16 and conjugated to biotin was purchased from Millipore.
BRD4-1 (44 to 170th amino acids; Genbank Accession # NM_058243) was expressed in E. coli with N-terminal His-tag (see, Ni-NTA spin Kit Handbook (Qiagen), second edition, January, 2008). Nickel-Chelate ALPHA acceptor beads (Perkin Elmer) were used to specifically bind BRD4-1, and ALPHA streptavidin donor beads (Perkin Elmer) were used because they specifically recognized the biotinylated H4 peptide.
BRD binding assays were performed in a mixture comprising 50 mM Hepes (pH7.5), 100 mM NaCl, 0.05% CHAPS, 0.1% BSA, and 1% DMSO. After an assay reaction time of 60 min at 25° C., binding was measured with streptavidin donor beads and nickel-chelate acceptor beads. ALPHA signal was detected on Enspire (Ex/Em=680/520-620 nm). IC50 values were calculated from the fit of the dose-response curves. All IC50 values represent geometric mean values of a minimum of four determinations. These assays generally produced results within 3-fold of the reported mean.

[7] = tested on: A375 (malignant melanoma); assay: Anti-proliferative activity, A375; type: cell-based; conditions: Homo sapiens, A-375, read-out: Cell proliferation, IC50
[8] = Animal pharmacokinetics in ICR mice; type: in vivo; conditions: ICR, mouse, 10 mg/kg
Experimental: Pharmacokinetics of the compounds of 1, 2, 7, 8 11 and 15 were evaluated in ICR mice (6˜8 weeks, 20˜25 g) following intravenous (IV) administration at 10 mg/kg and per oral (PO) administration at 10 mg/kg dose level, respectively. Especially, the additional dose level of Compound 1 was 30 mg/kg.
For serum compound analysis, blood samples were collected by cardiac puncture over 24 hr time course. 20 μL of spiked plasma was added into a 96-well plate, adding ten volumes of internal standard (IS) in acetonitrile (ACN) to the obtained precipitated protein mixed thoroughly, centrifuged at 4,000 rpm for 10 min. 150 μL of supernatant thus obtained was transferred to another pre-labeled 96-well plate, mixed with 150 μL of water. 5 μL or 10 μL of the mixture was injected into the LC-MS system under the following conditions:
Column: API-4000+Waters UPLC (TCLM08);
Lower limit of quantification (LLOQ) was at 1 ng/mL. Pharmacokinetic parameters of half-life (T1/2), clearance (CL), maximum plasma concentration (Cmax), mean residence time (MRT) and bioavailability (F %), plasma exposure (AUC) of the compound were calculated using Phoenix WinNonlin 6.3 (non-compartmental model).

[9] = Mouse liver microsomal stability/clearance; type: in vitro ADME; conditions: mouse liver microsomes; second value of Human/Mouse cell; read-out: Liver microsomal clearance (Mouse)
Experimental: as §5, §6, §7, §8, §9

CCS(=O)(=O)OC[C@@H]1N=C(c2ccc(Cl)cc2)c2cc(OC)ccc2-n2c(C)nnc21 [Compound 2, (R)-(6-(4-chlorophenyl)-8-methoxy-1-methyl-4H-benzo[f][1,2,4]triazolo[4,3-a][1,4]diazepin-4-yl)methyl ethanesulfonate]
IC50 [1]: 410 nM | microsomal CLint at 1 µM [2]: 1.9 µL/min/mg | IC50 [3]: 600 nM | IC50 [4]: 650 nM | IC50 [5]: 1450 nM | IC50 [6]: 220 nM | IC50 [7]: 9300 nM | AUC ([8]; in vivo, IV): 73 µM·h | MRT ([8]; in vivo, IV): 3.9 h | clearance ([8]; in vivo, IV): 4.9 mL/min/kg | AUC ([8]; in vivo, PO): 66 µM·h | MRT ([8]; in vivo, PO): 4.1 h | bioavailability ([8]; in vivo, PO): 89.8% | microsomal CLint at 1 µM [9]: 8.1 µL/min/mg

COc1ccc2c(c1)C(c1ccc(C#N)cc1)=N[C@@H](COS(C)(=O)=O)c1nnc(C)n1-2 [Compound 7, (R)-(6-(4-cyanophenyl)-8-methoxy-1-methyl-4H-benzo[f][1,2,4]triazolo[4,3-a][1,4]diazepin-4-yl)methyl methanesulfonate]
IC50 [1]: 3340 nM | microsomal CLint at 1 µM [2]: 2.1 µL/min/mg | IC50 [3]: 830 nM | IC50 [6]: 230 nM | AUC ([8]; in vivo, IV): 17.3 µM·h | clearance ([8]; in vivo, IV): 22.5 mL/min/kg | AUC ([8]; in vivo, PO): 8.19 µM·h | bioavailability ([8]; in vivo, PO): 47.4% | microsomal CLint at 1 µM [9]: 3.4 µL/min/mg

COc1ccc2c(c1)C(c1ccc(Cl)cc1)=N[C@@H](COS(N)(=O)=O)c1nnc(C)n1-2 [Compound 8, (R)-(6-(4-chlorophenyl)-8-methoxy-1-methyl-4H-benzo[f][1,2,4]triazolo[4,3-a][1,4]diazepin-4-yl)methyl sulfamate]
IC50 [1]: 1490 nM | microsomal CLint at 1 µM [2]: 5 µL/min/mg | IC50 [3]: 960 nM | IC50 [6]: 220 nM | AUC ([8]; in vivo, IV): 41 µM·h | clearance ([8]; in vivo, IV): 9 mL/min/kg | AUC ([8]; in vivo, PO): 31.5 µM·h | bioavailability ([8]; in vivo, PO): 62.3% | microsomal CLint at 1 µM [9]: 5 µL/min/mg

Cc1nnc2n1-c1ccc(-c3cnn(C)c3)cc1C(c1ccc(Cl)cc1)=N[C@H]2COS(C)(=O)=O [Compound 11, (R)-(6-(4-chlorophenyl)-1-methyl-8-(1-methyl-1H-pyrazol-4-yl)-4H-benzo[f][1,2,4]triazolo[4,3-a][1,4]diazepin-4-yl)methyl methanesulfonate]
IC50 [1]: 320 nM | microsomal CLint at 1 µM [2]: 8.6 µL/min/mg | IC50 [3]: 190 nM | IC50 [6]: 87 nM | AUC ([8]; in vivo, IV): 20 µM·h | clearance ([8]; in vivo, IV): 16.8 mL/min/kg | AUC ([8]; in vivo, PO): 11.7 µM·h | bioavailability ([8]; in vivo, PO): 58.4% | microsomal CLint at 1 µM [9]: 8.6 µL/min/mg

Cc1sc2c(c1C)C(c1ccc(Cl)cc1)=N[C@@H](COS(C)(=O)=O)c1nnc(C)n1-2 [Compound 15, (R)-(4-(4-chlorophenyl)-2,3,9-trimethyl-6H-thieno[3,2-f][1,2,4]triazolo[4,3-a][1,4]diazepin-6-yl)methyl methanesulfonate]
IC50 [1]: 500 nM | microsomal CLint at 1 µM [2]: 20 µL/min/mg | IC50 [3]: 480 nM | IC50 [6]: 100 nM | AUC ([8]; plasma, IV): 27 µM·h | MRT ([8]; plasma, IV): 1.9 h | clearance ([8]; plasma, IV): 13.5 mL/min/kg | AUC ([8]; plasma, PO): 31 µM·h | MRT ([8]; plasma, PO): 2.5 h | bioavailability ([8]; plasma, PO): 105% | microsomal CLint at 1 µM [9]: 22 µL/min/mg
